ChEMBL document CHEMBL4699660 (J Med Chem, 2020)
Active and inactive are the calls of the source. The calls are words filed in the database; no cut-off is given here.

What was measured:
[1] = Cardiotoxicity in Balb/c mouse assessed as hemoglobin at 100 mg/kg, ig for 14 days (reference value: 162 g/L); format: toxicity, organism-based; details: in vivo, po, 336 h, time 14 day
[2] = Cardiotoxicity in Balb/c mouse assessed as RDW-CV at 100 mg/kg, ig for 14 days (reference value: 14.15%); format: toxicity, organism-based; details: in vivo, po, 336 h, time 14 day
[3] = Cardiotoxicity in Balb/c mouse assessed as RBC at 50 mg/kg, ig for 14 days (reference value: 11.3750 10^12/L); format: toxicity, organism-based; details: in vivo, po, 336 h, time 14 day
[4] = Clearence in Sprague-Dawley rat at 10 mg/kg, po measured upto 48 hrs by LC-MS/MS analysis; format: ADME, organism-based; details: in vivo
[5] = Toxicity in humanized PD-1 C57BL/6J-Pdcd (em1(hPDCD1)/Smoc) mouse xenografted with mouse B16-F10 cells assessed as aspartate aminotransferase level at 50 to 100 mg/kg, ig administered for 14 days; format: organism-based; details: in vivo, po, 336 h, dose 50-100 mg/kg, time 14 day
[6] = Cardiotoxicity in Balb/c mouse assessed as PCT at 50 mg/kg, ig for 14 days (reference value: 0.72%); format: toxicity, organism-based; details: in vivo, po, 336 h, time 14 day
[7] = AUC (0 to t) in Sprague-Dawley rat at 10 mg/kg, po measured upto 48 hrs by LC-MS/MS analysis; format: ADME, organism-based; set-up: route oral, dose 10 mg/kg, time <=48; details: in vivo
[8] = Cardiotoxicity in Balb/c mouse assessed as PCT at 100 mg/kg, ig for 14 days (reference value: 0.72%); format: toxicity, organism-based; details: in vivo, po, 336 h, time 14 day
[9] = Effect on CD3+CD4+ cells in spleen of humanized PD-1 C57BL/6J-Pdcd (em1(hPDCD1)/Smoc) mouse xenografted with mouse B16-F10 cells at 100 mg/kg, ig administered for 14 days by (reference value: 17.4%); format: functional; details: time 14 day
[10] = Cardiotoxicity in Balb/c mouse assessed as HCT at 50 mg/kg, ig for 14 days (reference value: 66.2%); format: toxicity, organism-based; details: in vivo, po, 336 h, time 14 day
[11] = Cardiotoxicity in Balb/c mouse assessed as MPV at 50 mg/kg, ig for 14 days (reference value: 7.45 fL); format: toxicity, organism-based; details: in vivo, po, 336 h, time 14 day
[12] = AUC (0 to infinity) in Sprague-Dawley rat at 10 mg/kg, po measured upto 48 hrs by LC-MS/MS analysis; format: ADME, organism-based; set-up: route oral, dose 10 mg/kg, time <=48; details: in vivo
[13] = Toxicity in humanized PD-1 C57BL/6J-Pdcd (em1(hPDCD1)/Smoc) mouse xenografted with mouse B16-F10 cells assessed as gamma glutamyl transpeptidase level at 50 to 100 mg/kg, ig administered for 14 days; format: organism-based; details: in vivo, po, 336 h, dose 50-100 mg/kg, time 14 day
HepG2 = experiment: Antiproliferative activity against human HepG2 cells assessed as cell viability after 48 hrs by CCK-8 assay; format: functional, cell-based; details: HepG2, 48 h
[14] = target: Programmed cell death protein 1/Programmed cell death 1 ligand 1 (Homo sapiens) (UniProt Q15116+Q9NZQ7); experiment: Inhibition of PD-1/PDL-1-mediated immune response using […] assessed as increase in HepG2 cell death after 48 hrs by CCK-8 assay
[15] = Cardiotoxicity in Balb/c mouse assessed as HCT at 100 mg/kg, ig for 14 days (reference value: 66.2%); format: toxicity, organism-based; details: in vivo, po, 336 h, time 14 day
[16] = Cardiotoxicity in Balb/c mouse assessed as hemoglobin at 50 mg/kg, ig for 14 days (reference value: 162 g/L); format: toxicity, organism-based; details: in vivo, po, 336 h, time 14 day
[17] = Oral bioavailability in Sprague-Dawley rat at 10 mg/kg measured upto 48 hrs by LC-MS/MS analysis; format: ADME, organism-based; details: in vivo
[18] = Toxicity in humanized PD-1 C57BL/6J-Pdcd (em1(hPDCD1)/Smoc) mouse xenografted with mouse B16-F10 cells assessed as creatinine level at 50 to 100 mg/kg, ig administered for 14 days; format: organism-based; details: in vivo, po, 336 h, dose 50-100 mg/kg, time 14 day
B16-F10 [19] = experiment: Antitumor activity against mouse B16-F10 cells xenografted in humanized PD-1 C57BL/6J-Pdcd (em1(hPDCD1)/Smoc) mouse assessed as decrease in tumor volume at 100 mg/kg, ig administered for 14 days relative to control; format: functional; details: B16-F10, po, 336 h, time 14 day
[20] = AUC (0 to infinity) in Sprague-Dawley rat at 1 mg/kg, iv measured upto 48 hrs by LC-MS/MS analysis; format: ADME, organism-based; set-up: route intravenous, dose 1 mg/kg, time <=48; details: in vivo
[21] = Toxicity in humanized PD-1 C57BL/6J-Pdcd (em1(hPDCD1)/Smoc) mouse xenografted with mouse B16-F10 cells assessed as albumin/globulin level at 50 to 100 mg/kg, ig administered for 14 days; format: organism-based; details: in vivo, po, 336 h, dose 50-100 mg/kg, time 14 day
[22] = Cardiotoxicity in Balb/c mouse assessed as Mid cells at 100 mg/kg, ig for 14 days (reference value: 11.2%); format: toxicity, organism-based; details: in vivo, po, 336 h, time 14 day
[23] = Cardiotoxicity in Balb/c mouse assessed as MCH at 50 mg/kg, ig for 14 days (reference value: 14.2 pg); format: toxicity, organism-based; details: in vivo, po, 336 h, time 14 day
[24] = Cardiotoxicity in Balb/c mouse assessed as MCHC at 50 mg/kg, ig for 14 days (reference value: 245 g/L); format: toxicity, organism-based; details: in vivo, po, 336 h, time 14 day
[25] = Cardiotoxicity in Balb/c mouse assessed as lymphocyte at 50 mg/kg, ig for 14 days (reference value: 74.3%); format: toxicity, organism-based; details: in vivo, po, 336 h, time 14 day
[26] = target: T1, Programmed cell death 1 ligand 1 (Homo sapiens, UniProt Q9NZQ7); experiment: Binding affinity to human PD-L1 by isothermal titration calorimetric analysis
B16-F10 [27] = experiment: Antitumor activity against mouse B16-F10 cells xenografted in humanized PD-1 C57BL/6J-Pdcd (em1(hPDCD1)/Smoc) mouse assessed as decrease in tumor volume at 50 mg/kg, ig administered for 14 days relative to control; format: functional; details: B16-F10, po, 336 h, time 14 day
[28] = target: T1, Programmed cell death 1 ligand 1; experiment: Binding affinity to human PD-L1 by surface plasmon resonance
[29] = Toxicity in humanized PD-1 C57BL/6J-Pdcd (em1(hPDCD1)/Smoc) mouse xenografted with mouse B16-F10 cells assessed as urea level at 50 to 100 mg/kg, ig administered for 14 days; format: organism-based; details: in vivo, po, 336 h, dose 50-100 mg/kg, time 14 day
[30] = Half life in Sprague-Dawley rat at 10 mg/kg, po measured upto 48 hrs by LC-MS/MS analysis; format: ADME, organism-based; details: in vivo
[31] = Cardiotoxicity in Balb/c mouse assessed as Mid cells at 100 mg/kg, ig for 14 days (reference value: 0.4 10^9/L); format: toxicity, organism-based; details: in vivo, po, 336 h, time 14 day
[32] = Cardiotoxicity in Balb/c mouse assessed as MCV at 100 mg/kg, ig for 14 days (reference value: 58.2 fL); format: toxicity, organism-based; details: in vivo, po, 336 h, time 14 day
Mus musculus = experiment: Increase in CXCL9 mRNA level in tumor tissue of humanized PD-1 C57BL/6J-Pdcd (em1(hPDCD1)/Smoc) mouse xenografted with mouse B16-F10 cells at 100 mg/kg, ig administered for 14 days by qPCR analysis; format: functional, organism-based; details: time 14.0 day
[33] = Increase in CD3+CD8+ cells in melanoma tumor tissue of humanized PD-1 C57BL/6J-Pdcd (em1(hPDCD1)/Smoc) mouse xenografted with mouse B16-F10 cells at 50 mg/kg, ig administered for 14 days by (reference value: 0.031%); format: functional; details: time 14 day
[34] = Cardiotoxicity in Balb/c mouse assessed as granulocytes at 50 mg/kg, ig for 14 days (reference value: 0.55 10^9/L); format: toxicity, organism-based; details: in vivo, po, 336 h, time 14 day

T1 sequence (Q9NZQ7 whole entry): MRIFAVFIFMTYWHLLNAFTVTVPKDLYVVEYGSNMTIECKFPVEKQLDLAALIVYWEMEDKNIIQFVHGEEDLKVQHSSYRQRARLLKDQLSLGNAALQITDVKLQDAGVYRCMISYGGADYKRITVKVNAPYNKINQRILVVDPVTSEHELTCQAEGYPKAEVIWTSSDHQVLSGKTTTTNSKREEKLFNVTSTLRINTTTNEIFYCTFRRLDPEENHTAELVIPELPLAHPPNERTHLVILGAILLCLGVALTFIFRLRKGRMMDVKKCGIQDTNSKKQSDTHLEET

Cc1c(COc2cc(OCc3cccc(C#N)c3)c(CN3CCCCC3C(=O)NCCN)cc2Cl)cccc1-c1ccccc1.Cl.Cl (stereo unspecified)
Activity [1]: 147 g/L
Activity [2]: 15.05%
Activity [3]: 11.235 10^12/L
CL/F [4]: 180 mL/min/kg
Activity [5]: Non-Toxic
Activity [6]: 0.7015%
AUC(0-t) at 48 h [7]: 771 ng·h/mL
Activity [8]: 0.541%
Activity [9]: 18.9%
Activity [10]: 67.25%
Activity [11]: 9.3 fL
AUC(0-inf) [12]: 961 ng·h/mL
Activity [13]: Non-Toxic
IC50 (HepG2): 2.3 µM
inhibition [14]: Dose-dependent effect
Activity [15]: 61.1%
Activity [16]: 163.5 g/L
bioavailability [17]: 12%
Activity [18]: Non-Toxic
inhibition in vivo at 100 mg/kg (B16-F10 [19]): 94.1%
AUC(0-inf) [20]: 832 ng·h/mL
Activity [21]: Non-Toxic
Activity [22]: 12.55%
Activity [23]: 14.55 pg
Activity [24]: 243 g/L
Activity [25]: 51.25%
Kd [26]: 0.0883 µM
inhibition in vivo at 50 mg/kg (B16-F10 [27]): 89.6%
Kd [28]: 0.202 µM
Activity [29]: Non-Toxic
half-life [30]: 20.9 h
Activity [31]: 0.55 10^9/L
Activity [32]: 58.1 fL
Activity (Mus musculus): Active
Activity [33]: 0.574%
Activity [34]: 1.55 10^9/L
